Non-standard residues stand in square brackets, D forms with d. Residues, ends and D or L forms follow the SMILES beside them.
Key:
[1] = target: T1, monomeric full-length tau 441 (Homo sapiens, UniProt P10636); test: SPR measurement (Biacore T200, multicycle); type: binding; conditions: compound immobilized on CM5 chip, tau as analyte, 1:1 fit, dissociation time 60 min; read-out: dissociation rate (kd)
T1 construct: The gene for the human full-length tau was prepared on a plasmid called pET28a(+)-tau2N4R; made in house; host or cells: E. coli pRare
T1 sequence (P10636 1-441 isoform P10636-8): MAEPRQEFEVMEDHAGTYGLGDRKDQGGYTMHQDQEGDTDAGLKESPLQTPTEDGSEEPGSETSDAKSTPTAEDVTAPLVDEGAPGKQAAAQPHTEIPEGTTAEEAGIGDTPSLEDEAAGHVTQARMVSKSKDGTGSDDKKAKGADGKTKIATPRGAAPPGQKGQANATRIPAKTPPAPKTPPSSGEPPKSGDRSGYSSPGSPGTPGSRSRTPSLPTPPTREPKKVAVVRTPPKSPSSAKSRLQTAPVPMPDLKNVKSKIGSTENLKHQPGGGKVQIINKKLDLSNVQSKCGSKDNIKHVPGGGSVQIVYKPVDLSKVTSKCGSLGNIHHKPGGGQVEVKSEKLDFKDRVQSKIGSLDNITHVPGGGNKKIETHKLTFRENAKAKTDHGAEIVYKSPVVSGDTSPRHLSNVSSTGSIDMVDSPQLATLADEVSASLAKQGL
Procedure: (§1) Figure 8 SPR measurements of TF2D-5 and TF2D-5a with monomeric full-length tau 441 and tau repeat region 3. […] The concentration of tau during the measurement ranged from 3.125 nM to 25 nM. […] Tau was used in concentrations ranging from 31.25 nM to 500 nM. SPR measurements of A and B were recorded on a T200 Biacore instrument, the corresponding compound was immobilized on a CM5 chip from Cytiva while monomeric tau served as analyte. Tests were performed with TBS pH 7.4, 0.05% Tween20 and 10 µM DTT as running buffer. Fit calculation was completed with the internal evaluation software of the T200 Biacore. A 1:1 model was used for both fits. […] The concentrations for the single cycle measurement ranged from 3.125 nM to 100 nM. Measurements of C were performed on a Biacore 8K using a CM5 chip from Cytiva. TF2D-5a was immobilized on the chip while the R3 region of tau was used as analyte. PBS pH 7.4 with 0.05% Tween20 as used as running buffer. Fit calculation was performed using the Biacore insight evaluation software and a 1:1 model. […]
Measurements of TF2D-5 and TF2D-5a against full-length tau 441 were performed on a Biacore T200 (Biacore, GE Healthcare, Uppsala, Sweden) using multicycle experiments. […] The data were evaluated using the Biacore T200 Evaluation Software 3.2 using a 1:1 fit (RI = 0).

[2] = Stability in simulated gastric fluid; type: in vitro ADME; conditions: SGF: 2 mg/mL NaCl, 3.2 mg/mL pepsin, 80 mM HCl, pH 1; 8 h
Procedure: Figure 12 Stability assay of TF2D-5 and TF2D-5a using different simulated human body fluids. (A) Stability of compounds in simulated gastric fluid (SGF). The simulated gastric fluid consisted of 2 mg/mL sodium chloride, 3.2 mg/mL pepsin, and 80 mM HCl; pH 1. (B) Stability of TF2D-5 and TF2D-5a in simulated intestinal fluid (SIF). Simulated intestinal fluid consisted of 6.8 mg/mL potassium dihydrogen phosphate, 10 mg/mL pancreas powder, and 15.4 mM NaOH; pH 6.8. (C) Stability of TF2D-5 and TF2D-5a in human blood plasma. K3EDTA human blood plasma was purchased from BioTrend. (D) Stability of TF2D-5 and TF2D-5a in human liver microsomes. Human liver microsomes consisted of 6 mg/mL protein (containing Cytochrome P450 (CYP) enzymes), 75 mM sucrose, 1.3 mM NADPH, 3.3 mM D-glucose-6-phosphat, 0.2 u/mL D-glucose-6-phosphat dehydrogenase, 3.3 mM magnesium chloride, and 100 mM potassium phosphate; pH 7.4.
The stability of the compounds was tested according to Elfgen et al. and Schemmert et al. Exceptions included the extraction of plasma, simulated gastric fluid (SGF), and simulated intestinal fluid (SIF) samples. These were obtained by the addition of 12.5 µL 0.35 M ZnSO4, followed by vortexing, the addition of 12.5 µL 0.5 M HCl, additional vortexing, and centrifugation at 14,000× g for 10 min at 4 °C.

R3 domain of tau = target: T2, R3 domain of tau (Homo sapiens, UniProt P10636); test: SPR measurement (Biacore 8K, single cycle); type: binding; conditions: single cycle kinetics, peptide immobilized on CM5 chip, R3 (304-336) 3.125-100 nM as analyte, PBS pH 7.4, 0.05% Tween20, 1:1 fit
T2 construct: purchased CASLO ApS, Lyngby, Denmark; host or cells: synthetic peptide
T2 sequence (P10636 622-652 limits assumed): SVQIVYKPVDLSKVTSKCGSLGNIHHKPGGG
Procedure: as §1
Measurements of TF2D-5a against the R3 domain of tau were performed on a Biacore 8K (GE Healthcare, Uppsala, Sweden) using a single cycle experiment. […] The data were analyzed using the Biacore insight evaluation software 3.0.12.15655 using a 1:1 fit.

SMILES	koff [1] [s⁻¹]	stability in simulated gastric fluid [2]	Kd (R3 domain of tau) [pM]
CC[C@@H](C)[C@@H](NC(=O)[C@@H](Cc1c[nH]cn1)NC(=O)CNC(=O)CNC(=O)[C@H]1CCCN1C(=O)[C@H](NC(=O)[C@@H](CCCCN)NC(=O)[C@@H](Cc1ccccc1)NC(=O)[C@@H](CC(C)C)NC(=O)[C@H](NC(=O)[C@@H](CCC(N)=O)NC(=O)[C@@H](Cc1ccc(O)cc1)NC(=O)CNC(=O)CNC(=O)[C@H](N)CC(=O)O)[C@H](C)CC)[C@H](C)CC)C(=O)N[C@H](Cc1c[nH]cn1)C(N)=O [TF2D-5] (H-[dD]GG[dY][dQ][dI][dL][dF][dK][dI][dP]GG[dH][dI][dH]-NH2)	1.9e-05	very stable in simulated gastric fluid	
CC[C@@H](C)[C@@H](NC(=O)[C@@H](Cc1c[nH]cn1)NC(=O)CNC(=O)CNC(=O)[C@H]1CCCN1C(=O)[C@H](NC(=O)[C@@H](CCCCN)NC(=O)[C@@H](Cc1ccccc1)NC(=O)[C@@H](CC(C)C)NC(=O)[C@H](NC(=O)[C@@H](CCC(N)=O)NC(=O)[C@@H](Cc1ccc(O)cc1)NC(=O)CNC(=O)CNC(=O)[C@H](N)CC(=O)O)[C@H](C)CC)[C@H](C)CC)C(=O)N[C@H](Cc1c[nH]cn1)C(=O)N[C@H](CCCNC(=N)N)C(=O)N[C@H](CCCNC(=N)N)C(=O)N[C@H](CCCNC(=N)N)C(=O)N[C@H](CCCNC(=N)N)C(=O)N[C@H](CCCNC(=N)N)C(N)=O [TF2D-5a] (H-[dD]GG[dY][dQ][dI][dL][dF][dK][dI][dP]GG[dH][dI][dH][dR][dR][dR][dR][dR]-NH2)	4.3e-05	very stable in simulated gastric fluid	7.06
